According to US9593121B2, “Indole substituted pyrrolopyrimidinyl inhibitors of Uba6” (Millennium Pharmaceuticals, Inc., priority 2012, dated 2017):
Structures can show the parent of a compound that is named as a salt.

Target: recombinant human his-UBA6 enzyme (Homo sapiens (Human), UniProt A0AVT1)
Test: UBA6 AlphaScreen Assay
Assay type: biochemical
Conditions: for inhibition at 0.123 µM: compound at 0.123 μM
Protocol: UBA6 AlphaScreen® Assay. The UBA6 enzmatic reaction totals 20 μL and contains 50 mM HEPES (pH 7.5), 0.05% BSA, 0.02% Tween 20, 0.1 mM TCEP, 5 mM MgCl2, 2 μM ATP, 60 nM Flag-Ubiquitin, 20 nM Biotin-his-Use1, and 0.15 nM recombinant human his-UBA6 enzyme. The enzymatic reaction mixture, with and without compound inhibitor, is incubated at 24° C. for 90 minutes in a 384 well plate before termination with 10 μL of Stop/Detection buffer (50 mM HEPES (pH 7.5), 0.05% BSA, 0.02% Tween 20, 0.1 mM TCEP, 20 mM EDTA, 30 μg/ml anti-FLAG Acceptor beads (Perkin Elmer), and 6 μg/mL streptavidin donor beads (Perkin Elmer). After incubation for 2 hours at 24° C. in a dark room, quantification of the AlphaScreen signal is performed on the Pherastar™ (BMG).

Chain of recombinant human his-UBA6 enzyme (A0AVT1 whole entry): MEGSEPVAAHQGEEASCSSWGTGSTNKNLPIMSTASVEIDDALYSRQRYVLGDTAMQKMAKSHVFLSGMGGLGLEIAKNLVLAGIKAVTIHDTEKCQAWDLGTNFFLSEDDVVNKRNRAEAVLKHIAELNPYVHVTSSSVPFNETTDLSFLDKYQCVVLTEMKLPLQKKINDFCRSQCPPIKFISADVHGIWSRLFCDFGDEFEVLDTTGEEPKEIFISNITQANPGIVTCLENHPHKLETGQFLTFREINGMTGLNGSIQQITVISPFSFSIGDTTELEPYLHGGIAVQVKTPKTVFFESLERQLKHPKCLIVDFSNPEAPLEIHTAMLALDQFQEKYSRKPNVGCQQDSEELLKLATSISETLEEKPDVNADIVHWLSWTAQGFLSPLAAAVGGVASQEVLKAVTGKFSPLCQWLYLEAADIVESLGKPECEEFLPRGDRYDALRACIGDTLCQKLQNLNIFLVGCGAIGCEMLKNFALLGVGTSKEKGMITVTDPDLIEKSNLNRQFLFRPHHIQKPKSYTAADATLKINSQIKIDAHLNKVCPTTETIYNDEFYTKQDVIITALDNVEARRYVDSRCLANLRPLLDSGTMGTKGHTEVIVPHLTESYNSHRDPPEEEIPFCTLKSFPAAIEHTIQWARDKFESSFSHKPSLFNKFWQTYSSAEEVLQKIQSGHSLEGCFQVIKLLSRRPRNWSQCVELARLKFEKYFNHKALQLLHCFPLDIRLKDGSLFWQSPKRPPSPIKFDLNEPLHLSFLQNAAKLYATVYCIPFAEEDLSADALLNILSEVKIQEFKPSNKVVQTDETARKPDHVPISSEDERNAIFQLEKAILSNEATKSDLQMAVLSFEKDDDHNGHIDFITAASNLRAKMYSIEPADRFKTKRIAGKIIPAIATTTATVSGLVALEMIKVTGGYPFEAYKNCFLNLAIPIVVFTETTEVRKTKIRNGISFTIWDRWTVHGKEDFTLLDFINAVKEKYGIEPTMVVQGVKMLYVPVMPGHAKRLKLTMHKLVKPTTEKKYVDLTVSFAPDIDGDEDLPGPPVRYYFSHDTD

| SMILES | IC50 [nM] | inhibition at 0.123 µM [%] | inhibition at 1.11 µM (compound at 1.11 μM (footnote ‡)) [%] |
| --- | --- | --- | --- |
| COc1ccc2[nH]c(-c3ncnc4c3ccn4[C@@H]3C[C@@H](COS(N)(=O)=O)[C@@H](O)C3)cc2c1 [Compound I-03, {(1S,2S,4R)-2-hydroxy-4-[4-(5-methoxy-1H-indol-2-yl)-7H-pyrrolo[2,3-d]pyrimidin-7-yl]cyclopentyl}methyl sulfamate] | ≤ 50 | 93 | – |
| Cc1ccc2cc(-c3ncnc4c3ccn4[C@@H]3C[C@@H](COS(N)(=O)=O)[C@@H](O)C3)[nH]c2c1 [Compound I-06, {(1S,2S,4R)-2-hydroxy-4-[4-(6-methyl-1H-indol-2-yl)-7H-pyrrolo[2,3-d]pyrimidin-7-yl]cyclopentyl}methyl sulfamate] | ≤ 50 | 88 | – |
| COc1ccc2cc(-c3ncnc4c3ccn4[C@@H]3C[C@@H](COS(N)(=O)=O)[C@@H](O)C3)[nH]c2c1 [Compound I-07, {(1S,2S,4R)-2-hydroxy-4-[4-(6-methoxy-1H-indol-2-yl)-7H-pyrrolo[2,3-d]pyrimidin-7-yl]cyclopentyl}methyl sulfamate] | ≤ 50 | 90 | – |
| NS(=O)(=O)OC[C@@H]1C[C@@H](n2ccc3c(-c4cc5cc(F)c(Cl)cc5[nH]4)ncnc32)C[C@@H]1O [Compound I-09, {(1S,2S,4R)-4-[4-(6-chloro-5-fluoro-1H-indol-2-yl)-7H-pyrrolo[2,3-d]pyrimidin-7-yl]-2-hydroxycyclopentyl}methyl sulfamate] | 50 to 2000 | 49 | – |
| COc1ccc2cc(-c3ncnc4c3ccn4[C@@H]3C[C@@H](COS(N)(=O)=O)[C@@H](O)C3)n(C(=O)OC(C)(C)C)c2c1 [Compound I-10, tert-butyl 2-(7-{(1R,3S,4S)-3-hydroxy-4-[(sulfamoyloxy)methyl]cyclopentyl}-7H-pyrrolo[2,3-d]pyrimidin-4-yl)-6-methoxy-1H-indole-1-carboxylate] | 50 to 2000 | – | 26 |
| NS(=O)(=O)OC[C@@H]1C[C@@H](n2ccc3c(-c4cc5cc(F)ccc5[nH]4)ncnc32)C[C@@H]1O [Compound I-11, {(1S,2S,4R)-4-[4-(5-fluoro-1H-indol-2-yl)-7H-pyrrolo[2,3-d]pyrimidin-7-yl]-2-hydroxycyclopentyl}methyl sulfamate] | 50 to 2000 | 61 | – |
| NS(=O)(=O)OC[C@@H]1C[C@@H](n2ccc3c(-c4cc5ccc(C(F)(F)F)cc5[nH]4)ncnc32)C[C@@H]1O [Compound I-14, [(1S,2S,4R)-2-hydroxy-4-{4-[6-(trifluoromethyl)-1H-indol-2-yl]-7H-pyrrolo[2,3-d]pyrimidin-7-yl}cyclopentyl]methyl sulfamate] | 50 to 2000 | 32 | – |

Further lines, results first:

| IC50 [nM] | inhibition at 0.123 µM [%] | inhibition at 1.11 µM (compound at 1.11 μM (footnote ‡)) [%] | SMILES |
| --- | --- | --- | --- |
| ≤ 50 | 87 | – | NS(=O)(=O)OC[C@@H]1C[C@@H](n2ccc3c(-c4cc5ccccc5[nH]4)ncnc32)C[C@@H]1O [Compound I-01, ((1S,2S,4R)-4-(4-(1H-indol-2-yl)-7H-pyrrolo[2,3-d]pyrimidin-7-yl)-2-hydroxycyclopentyl)methyl sulfamate HCl] |
| 50 to 2000 | 5.9 | – | Cn1c(-c2ncnc3c2ccn3[C@@H]2C[C@@H](COS(N)(=O)=O)[C@@H](O)C2)cc2ccccc21 [Compound I-02, {(1S,2S,4R)-2-hydroxy-4-[4-(1-methyl-1H-indol-2-yl)-7H-pyrrolo[2,3-d]pyrimidin-7-yl]cyclopentyl}methyl sulfamate HCl] |
| ≤ 50 | 91 | – | NS(=O)(=O)OC[C@@H]1C[C@@H](n2ccc3c(-c4cc5ccc(Cl)cc5[nH]4)ncnc32)C[C@@H]1O [Compound I-04, {(1S,2S,4R)-4-[4-(6-chloro-1H-indol-2-yl)-7H-pyrrolo[2,3-d]pyrimidin-7-yl]-2-hydroxycyclopentyl}methyl sulfamate] |
| ≤ 50 | 86 | – | N#Cc1ccc2cc(-c3ncnc4c3ccn4[C@@H]3C[C@@H](COS(N)(=O)=O)[C@@H](O)C3)[nH]c2c1 [Compound I-05, {(1S,2S,4R)-4-[4-(6-cyano-1H-indol-2-yl)-7H-pyrrolo[2,3-d]pyrimidin-7-yl]-2-hydroxycyclopentyl}methyl sulfamate] |
| ≤ 50 | 74 | – | Cc1nc(-c2cc3ccccc3[nH]2)c2ccn([C@@H]3C[C@@H](COS(N)(=O)=O)[C@@H](O)C3)c2n1 [Compound I-08, {(1S,2S,4R)-2-hydroxy-4-[4-(1H-indol-2-yl)-2-methyl-7H-pyrrolo[2,3-d]pyrimidin-7-yl]cyclopentyl}methyl sulfamate HCl] |
| 50 to 2000 | 12 | – | COc1cccc2cc(-c3ncnc4c3ccn4[C@@H]3C[C@@H](COS(N)(=O)=O)[C@@H](O)C3)[nH]c12 [Compound I-12, {(1S,2S,4R)-2-hydroxy-4-[4-(7-methoxy-1H-indol-2-yl)-7H-pyrrolo[2,3-d]pyrimidin-7-yl]cyclopentyl}methyl sulfamate] |
| 50 to 2000 | 16 | – | Cc1c(-c2ncnc3c2ccn3[C@@H]2C[C@@H](COS(N)(=O)=O)[C@@H](O)C2)[nH]c2ccccc12 [Compound I-13, {(1S,2S,4R)-2-hydroxy-4-[4-(3-methyl-1H-indol-2-yl)-7H-pyrrolo[2,3-d]pyrimidin-7-yl]cyclopentyl}methyl sulfamate] |
